Assay results reported in US20090023704A1, “Novel Compounds 737” (ASTRAZENECA AB, priority 2007, published 2009).

Molecular target: T1, GABAB receptor (GABABR1a/GABABR2 heterodimer) (Homo sapiens, UniProt O75899+Q9UBS5)
T1 construct: expressed in transfected cells
Experiment: [35S]-GTPγS binding assay, potency of PAM (GABA dose-response curves with and without test compound)
Assay type: biochemical
Details: potency of the positive allosteric modulator; GABA dose-response in presence of test compound
Outline: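 Membranes from human GABABR1a/GABABR2-expressing cell lines, one with a GABABR1a-Gαqi5mut fusion, were incubated at 30 °C for 45 min, pH 7.4, with 10 μM GDP and 0.53 nM [35S]-GTPγS. GABA (0.1 nM–1 mM) was added with or without PAM, and EC50 was obtained by 4-parameter logistic fit after filtration and scintillation counting.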

T1 sequence (Q9UBS5 15-961 limits assumed): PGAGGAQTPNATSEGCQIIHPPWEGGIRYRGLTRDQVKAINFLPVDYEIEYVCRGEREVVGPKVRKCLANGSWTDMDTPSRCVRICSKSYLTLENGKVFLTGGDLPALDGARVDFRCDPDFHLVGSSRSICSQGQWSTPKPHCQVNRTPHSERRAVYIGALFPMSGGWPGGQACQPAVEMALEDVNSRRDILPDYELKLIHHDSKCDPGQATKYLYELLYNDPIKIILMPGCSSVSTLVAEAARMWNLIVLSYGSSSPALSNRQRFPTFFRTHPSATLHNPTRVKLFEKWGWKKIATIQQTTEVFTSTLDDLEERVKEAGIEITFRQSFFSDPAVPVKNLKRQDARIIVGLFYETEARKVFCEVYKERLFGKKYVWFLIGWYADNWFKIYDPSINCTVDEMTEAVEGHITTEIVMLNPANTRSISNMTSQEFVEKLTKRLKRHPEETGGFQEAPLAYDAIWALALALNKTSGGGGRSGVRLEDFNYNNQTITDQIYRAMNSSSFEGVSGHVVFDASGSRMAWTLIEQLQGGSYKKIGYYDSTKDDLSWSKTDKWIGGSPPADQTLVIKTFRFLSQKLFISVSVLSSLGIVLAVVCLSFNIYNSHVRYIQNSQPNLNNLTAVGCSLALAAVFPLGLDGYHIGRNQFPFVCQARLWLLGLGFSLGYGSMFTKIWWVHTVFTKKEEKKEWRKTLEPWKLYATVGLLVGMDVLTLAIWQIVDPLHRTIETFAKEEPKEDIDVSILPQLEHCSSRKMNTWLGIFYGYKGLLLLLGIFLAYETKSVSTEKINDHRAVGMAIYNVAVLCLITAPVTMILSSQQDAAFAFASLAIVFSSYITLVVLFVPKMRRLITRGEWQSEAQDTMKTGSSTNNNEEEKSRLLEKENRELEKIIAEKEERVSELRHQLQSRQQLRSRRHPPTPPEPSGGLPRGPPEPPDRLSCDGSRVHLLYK
T1 sequence (O75899 42-941): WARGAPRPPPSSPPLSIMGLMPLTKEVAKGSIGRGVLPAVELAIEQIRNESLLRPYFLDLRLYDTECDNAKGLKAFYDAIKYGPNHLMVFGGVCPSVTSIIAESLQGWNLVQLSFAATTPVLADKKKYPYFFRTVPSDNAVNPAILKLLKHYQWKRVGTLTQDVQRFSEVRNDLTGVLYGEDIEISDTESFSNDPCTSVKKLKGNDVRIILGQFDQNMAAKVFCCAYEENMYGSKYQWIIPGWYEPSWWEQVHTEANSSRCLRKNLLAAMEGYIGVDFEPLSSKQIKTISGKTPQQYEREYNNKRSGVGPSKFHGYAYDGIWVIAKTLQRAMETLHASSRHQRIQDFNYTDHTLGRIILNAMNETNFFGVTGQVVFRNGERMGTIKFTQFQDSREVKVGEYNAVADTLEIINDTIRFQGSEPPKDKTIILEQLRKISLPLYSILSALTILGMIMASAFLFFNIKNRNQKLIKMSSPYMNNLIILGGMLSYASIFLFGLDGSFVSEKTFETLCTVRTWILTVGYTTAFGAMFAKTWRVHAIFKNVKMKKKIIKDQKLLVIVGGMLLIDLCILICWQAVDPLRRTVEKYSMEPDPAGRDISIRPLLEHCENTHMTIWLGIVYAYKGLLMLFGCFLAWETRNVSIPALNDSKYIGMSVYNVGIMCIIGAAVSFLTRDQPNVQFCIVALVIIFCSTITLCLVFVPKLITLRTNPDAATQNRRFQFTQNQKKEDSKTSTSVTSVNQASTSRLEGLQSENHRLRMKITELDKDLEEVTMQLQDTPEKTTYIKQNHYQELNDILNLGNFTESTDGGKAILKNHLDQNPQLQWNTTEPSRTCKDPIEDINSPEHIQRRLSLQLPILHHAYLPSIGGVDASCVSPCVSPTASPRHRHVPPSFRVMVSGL

EC50 [µM] | SMILES
7.2 | CCCn1c(=O)n(Cc2ccc(Cl)cc2)c(=O)c2c1nc(N1CCC[C@H]1COC)n2C [Example 93, 1-(4-chlorobenzyl)-8-[(2S)-2-(methoxymethyl)pyrrolidin-1-yl]-7-methyl-3-propyl-3,7-dihydro-1H-purine-2,6-dione]
9 | CCCn1c(=O)n(Cc2ccc(Cl)cc2)c(=O)c2c1nc(N1CCC[C@H]1CN1CCCC1)n2C [Example 94, 1-(4-chlorobenzyl)-7-methyl-3-propyl-8-[(2S)-2-(pyrrolidin-1-ylmethyl)pyrrolidin-1-yl]-3,7-dihydro-1H-purine-2,6-dione]
4.5 | CCCn1c(=O)n(Cc2ccc(Cl)cc2)c(=O)c2c1nc(Br)n2C [Example 95, 8-bromo-1-(4-chlorobenzyl)-7-methyl-3-propyl-3,7-dihydro-1H-purine-2,6-dione]
12.2 | CCCn1c(=O)n(Cc2ccc(Cl)cc2)c(=O)c2c1nc(C(C)O)n2C (stereo not shown) [Example 96, 1-(4-chlorobenzyl)-8-(1-hydroxyethyl)-7-methyl-3-propyl-3,7-dihydro-1H-purine-2,6-dione]
